Laboratory results taken from patent US20240252527A9, “NUCLEOSIDE DRUGS FOR THE TREATMENT OR PREVENTION OF CORONAVIRUS INFECTION AND THEIR USES” (Miracure Biotechnology Limited, priority 2022, published 2024).
Like-named read-outs stand apart in the source and are kept apart here.

Legend:
229E = 229E MRC5 CPE assay (cytopathic experiment); format: cell-based, coronavirus 229E (HCoV-229E)
Experimental: (§1) Cells were seeded into microplates at a certain density and cultured overnight in a incubator at 5% CO2, 37° C. The next day, double-diluted compound and virus were added. It was set up a cell control group (cells without treatment with a compound or virus infection), a virus control group (cells infected with virus, no compound treatment) and a culture medium control group (medium only). Cells were cultured in the incubator for 3 days (229E) or 7 days (OC43). Cytotoxicity experiments were performed under the same conditions as antiviral experiments, but without virus infection. Cell viability was tested using a cell viability assay kit Cell Titer Glo (Promega).
(§2) The antiviral activity and cytotoxicity of the compounds were expressed by the inhibition rate (%) and cell viability (%) of the compounds against virus-induced cytopathic effects at different concentrations, respectively. Nonlinear fitting analysis on the inhibition rate and cell viability of the compounds were carried out with the GraphPad Prism, and the half effective concentration (EC50), the […] effective concentration (EC90), the half cytotoxic concentration (CC50) and the 90% cytotoxic concentration of the compound […] values were calculated.

OC43 = OC43 Huh7 CPE assay (cytopathic experiment); format: cell-based, coronavirus OC43 (HCoV-OC43); settings: for EC50: read-out: OC43 Huh7 CPE assay (μM) EC50; for EC90: read-out: OC43 Huh7 CPE assay (μM) EC90
Experimental: as §1, §2

[1] = Human coronavirus 229E, MRC5, 72 h, read-out: 229E MRC5 CPE assay (μM) EC50
[2] = Human coronavirus 229E, MRC5, 72 h, read-out: 229E MRC5 CPE assay (μM) EC90
[3] = Betacoronavirus 1, OC43, Huh-7, 168 h
[4] = Human coronavirus 229E, MRC5, 72 h; read-out: 229E MRC5 CPE assay (μM) EC50
[5] = Human coronavirus 229E, MRC5, 72 h; read-out: 229E MRC5 CPE assay (μM) EC90
[6] = Betacoronavirus 1, Huh-7, 168 h, Huh7 cells, OC43 virus, 7 days, Cell Titer Glo
[7] = Huh7 cells, OC43 virus, 7 days, Cell Titer Glo

| Structure (SMILES) | EC50 (229E; [1]) | EC90 (229E; [2]) | EC50 (OC43; [3]) | EC90 (OC43; [3]) | further results |
| --- | --- | --- | --- | --- | --- |
| CCCC(CCC)C(=O)OCO[P@](=O)(N[C@@H](C)C(=O)OCC)OC[C@H]1O[C@@](C#N)(c2ccc3c(N)ncnn23)[C@H](O)[C@@H]1O [Compound 097] | < 0.1 µM | 0.1 to 0.5 µM | 0.1 to 0.5 µM | 0.1 to 0.5 µM |  |
| CCC(CC)COC(=O)[C@H](C)N[P@@]1(=O)OC[C@H]2O[C@@](C#N)(c3ccc4c(N)ncnn34)[C@H](O)[C@@H]2O1 [Compound 140] | > 0.5 µM | > 0.5 µM | > 0.5 µM | > 0.5 µM |  |
| CCOC(=O)[C@H](C)N[P@](=O)(OC[C@H]1O[C@@](C#N)(c2ccc3c(N)ncnn23)[C@H](O)[C@@H]1O)Oc1ccc(Nc2ccnc3cc(Cl)ccc23)cc1CN(CC)CC [Compound 088] |  |  |  |  | EC50 (229E; [4]): > 0.5 µM; EC90 (229E; [5]): > 0.5 µM; EC50 (OC43; [6]): > 0.5 µM; EC90 (OC43; [6]): > 0.5 µM |
| CC(C)OC(=O)C(C)(C)NP(=O)(OCOC(=O)C(C)(C)C)OC[C@H]1O[C@@](C#N)(c2ccc3c(N)ncnn23)[C@H](O)[C@@H]1O (some centres unmarked) [Compound 195] | 0.1 to 0.5 µM | > 0.5 µM | 0.1 to 0.5 µM | > 0.5 µM |  |
| CC(C)OC(=O)C(C)(C)N[P@](=O)(OCOC(=O)c1cccnc1)OC[C@H]1O[C@@](C#N)(c2ccc3c(N)ncnn23)[C@H](O)[C@@H]1O [Compound 176] | > 0.5 µM | > 0.5 µM | > 0.5 µM | > 0.5 µM |  |
| CCCN(CCC)S(=O)(=O)c1ccc(C(=O)OCO[P@](=O)(N[C@@H](C)C(=O)OCC(CC)CC)OC[C@H]2O[C@@](C#N)(c3ccc4c(N)ncnn34)[C@H](O)[C@@H]2O)cc1 [Compound 160] | > 0.5 µM | > 0.5 µM | > 0.5 µM | > 0.5 µM |  |
| CC(C)OC(=O)C(C)(C)N[P@](=O)(OCOC(=O)C(C)(C)C)OC[C@H]1O[C@@](C#N)(c2ccc3c(N)ncnn23)[C@H](O)[C@@H]1O [Compound 194] | 0.1 to 0.5 µM | > 0.5 µM | 0.1 to 0.5 µM | > 0.5 µM |  |
| CCCC(CCC)C(=O)OCO[P@@](=O)(N[C@@H](C)C(=O)OCC)OC[C@H]1O[C@@](C#N)(c2ccc3c(N)ncnn23)[C@H](O)[C@@H]1O [Compound 098] | < 0.1 µM | < 0.1 µM | < 0.1 µM | 0.1 to 0.5 µM |  |
| CCCC(CCC)C(=O)OC(C)O[P@]1(=O)OC[C@H]2O[C@@](C#N)(c3ccc4c(N)ncnn34)[C@H](O)[C@@H]2O1 (some centres unmarked) [Compound 142] |  |  |  |  | EC50 (229E; read-out: 229E MRC5 CPE assay (μM) EC50; MRC5 cells, 229E virus, 3 days, Cell Titer Glo): > 0.5 µM; EC90 (229E; read-out: 229E MRC5 CPE assay (μM) EC90; MRC5 cells, 229E virus, 3 days, Cell Titer Glo): > 0.5 µM; EC50 (OC43; [7]): > 0.5 µM; EC90 (OC43; [7]): > 0.5 µM |
| CCC(CC)COC(=O)[C@H](C)N[P@@](=O)(OCOC(=O)OC(C)C)OC[C@H]1O[C@@](C#N)(c2ccc3c(N)ncnn23)[C@H](O)[C@@H]1O [Compound 076] | < 0.1 µM | 0.1 to 0.5 µM | 0.1 to 0.5 µM | 0.1 to 0.5 µM |  |
| [2H]c1cc([C@]2(C#N)O[C@@H]3CO[P@@](=O)(O)O[C@H]3[C@H]2OC(=O)C(CCC)CCC)n2ncnc(N)c12 [Compound 209] | > 0.5 µM | > 0.5 µM | > 0.5 µM | 0.1 to 0.5 µM |  |
| CCCCOC(=O)[C@H](Cc1ccccc1)N[P@@](=O)(OCOC(=O)C(CCC)CCC)OC[C@H]1O[C@@](C#N)(c2ccc3c(N)ncnn23)[C@H](O)[C@@H]1O [Compound 138] | < 0.1 µM | 0.1 to 0.5 µM | < 0.1 µM | < 0.1 µM |  |
| CC(C)OC(=O)CO[P@@]1(=S)OC[C@H]2O[C@@](C#N)(c3ccc4c(N)ncnn34)[C@H](O)[C@@H]2O1 [Compound 150] |  |  | > 0.5 µM | > 0.5 µM | EC50 (229E; [4]): > 0.5 µM; EC90 (229E; [5]): > 0.5 µM |
| CCCC(CCC)C(=O)OCO[P@](=O)(N[C@H](C)C(=O)OC(C)C)OC[C@H]1O[C@@](C#N)(c2ccc3c(N)ncnn23)[C@H](O)[C@@H]1O [Compound 036] | 0.1 to 0.5 µM | 0.1 to 0.5 µM | 0.1 to 0.5 µM | > 0.5 µM |  |
| CCCC(CCC)C(=O)OCO[P@@](=O)(OC[C@H]1O[C@@](C#N)(c2ccc3c(N)ncnn23)[C@H](O)[C@@H]1O)Oc1ccccc1 [Compound 222] |  |  | > 0.5 µM | > 0.5 µM | EC50 (229E; [4]): 0.1 to 0.5 µM; EC90 (229E; [5]): > 0.5 µM |
| CCCN(CCC)S(=O)(=O)c1ccc(C(=O)OCO[P@@](=O)(N[C@@H](C)C(=O)OCC(CC)CC)OC[C@H]2O[C@@](C#N)(c3ccc4c(N)ncnn34)[C@H](O)[C@@H]2O)cc1 [Compound 161] | > 0.5 µM | > 0.5 µM | > 0.5 µM | > 0.5 µM |  |
| [2H]c1cc([C@]2(C#N)O[C@@H]3CO[P@@](=O)(OCCSC(=O)C(C)(C)C)O[C@H]3[C@H]2O)n2ncnc(N)c12 [Compound 239] | < 0.1 µM | < 0.1 µM | < 0.1 µM | 0.1 to 0.5 µM |  |
| CCCC(CCC)C(=O)OCO[P@@](=O)(N[C@@H](C)C(=O)OCC(CC)CC)OC[C@H]1O[C@@](C#N)(c2ccc3c(N)ncnn23)[C@H](O)[C@@H]1O [Compound 071] | < 0.1 µM | < 0.1 µM | < 0.1 µM | < 0.1 µM |  |
| CCC(CC)COC(=O)[C@H](C)NP(=O)(OC[C@H]1O[C@@](C#N)(c2ccc3c(N)ncnn23)[C@H](O)[C@@H]1O)Oc1ccc(N)cc1C(=O)O (some centres unmarked) [Compound 107] |  |  |  |  | EC50 (229E; [4]): > 0.5 µM; EC90 (229E; [5]): > 0.5 µM; EC50 (OC43; [6]): > 0.5 µM; EC90 (OC43; [6]): > 0.5 µM |
| CCCC(CCC)C(=O)OCO[P@@](=O)(OC[C@H]1O[C@@](C#N)(c2ccc3c(N)ncnn23)[C@H](O)[C@@H]1O)Oc1ccc(C[C@H](NC(=O)OCc2ccccc2)C(=O)OC2CCCC2)cc1 [Compound 227] |  |  | > 0.5 µM | > 0.5 µM | EC50 (229E; [4]): > 0.5 µM; EC90 (229E; [5]): > 0.5 µM |
| CC(C)OC(=O)C(C)(C)N[P@@](=O)(OCOC(=O)C1CCCC1)OC[C@H]1O[C@@](C#N)(c2ccc3c(N)ncnn23)[C@H](O)[C@@H]1O [Compound 267] | > 0.5 µM | > 0.5 µM | > 0.5 µM | > 0.5 µM |  |
| CCCC(CCC)C(=O)O[C@@H]1[C@@H]2OP(=O)(O)OC[C@H]2O[C@@]1(C#N)c1ccc2c(N)ncnn12 [Compound 057] | > 0.5 µM | > 0.5 µM | 0.1 to 0.5 µM | > 0.5 µM |  |
| CC(C)(C)C(=O)OCO[P@@]1(=O)OCC2O[C@@](C#N)(c3ccc4c(N)ncnn34)[C@H](O)[C@@H]2O1 (some centres unmarked) [Compound 197] | 0.1 to 0.5 µM | > 0.5 µM | > 0.5 µM | > 0.5 µM |  |
| CCCN(CCC)S(=O)(=O)c1ccc(C(=O)OCO[P@]2(=O)OCC3O[C@@](C#N)(c4ccc5c(N)ncnn45)[C@H](O)[C@@H]3O2)cc1 (some centres unmarked) [Compound 157] | 0.1 to 0.5 µM | > 0.5 µM | > 0.5 µM | > 0.5 µM |  |
| CCCC(CCC)C(=O)OCO[P@](=O)(N[C@@H](Cc1ccccc1)C(=O)OCC(CC)CC)OC[C@H]1O[C@@](C#N)(c2ccc3c(N)ncnn23)[C@H](O)[C@@H]1O [Compound 139] | < 0.1 µM | 0.1 to 0.5 µM | < 0.1 µM | < 0.1 µM |  |
| CCO[P@]1(=O)OC[C@H]2O[C@@](C#N)(c3ccc4c(N)ncnn34)[C@H](O)[C@@H]2O1 [Compound 231] |  |  |  |  | EC50 (229E; [4]): > 0.5 µM; EC90 (229E; [5]): > 0.5 µM; EC50 (OC43; [6]): > 0.5 µM; EC90 (OC43; [6]): > 0.5 µM |
